Data taken from patent US4350702A, “Method of inhibiting platelet aggregation” (Beecham Group Limited, priority 1975, dated 1982).
Structures can show the parent of a compound that is named as a salt. Where two headings read alike, the source gives them in different places.

System: platelet aggregation in response to collagen (human platelet-rich plasma)
Test: Inhibition of collagen-induced platelet aggregation in vitro (human platelet-rich plasma, photometric aggregometer)
Type: cell-based
Details: 0.05 h, read-out: % Inhibition of the platelet aggregation response to collagen
Method: The compounds of the Examples above were tested for their ability to inhibit platelet aggregation in vitro as follows:
Platelet-rich-plasma (PRP) is prepared by centrifuging the anti-coagulated blood at 180 g., for 12 minutes, at room temperature. Collagen (3×-bovine achilles tendon) is suspended in 0.9% (w/v) saline, using a commercially available mixer emulsifier. PRP was mixed with 0.1 volumes saline (control) or compound dissolved in saline and incubated at 37° for 3 minutes, before the addition of collagen. Water-insoluble compounds were added to PRP, dissolved in 0.005 volumes dimethylformamide, the solvent being included in controls when appropriate. The final concentration of each compound was 100 μM.
The activity of each compound was expressed as percentage inhibition of the aggregation response to a dose of collagen producing a just-maximal change in light transmission in control PRP.

[1] = final concentration 100 μM, human PRP, 37°, 3 min incubation before collagen, just-maximal collagen dose

SMILES | inhibition at 100 µM [1] [%] | inhibition at 100 µM (Homo sapiens) [%]
O=c1c2cc(Cl)ccc2sn1CCc1ccccn1 [Example 1, 5-Chloro-2[β-(2-pyridyl)ethyl]-1,2-benzisothiazol-3-one hydrochloride] | 100 | –
O=c1c2ccccc2sn1CCCCCCN1CC2CCC(CC2)C1 [Example 2, 2-[6-(3-azabicyclo[3.2.2]non-3-yl)-hexyl]-1,2-benzisothiazlol-3-one hydrochloride] | 100 | –
COc1cc2sn(CCc3ccccn3)c(=O)c2cc1OC [Example 3, 5,6-Dimethoxy-2[β-(2-pyridyl)ethyl]-1,2-benzisothiazol-3-one] | 100 | –
O=c1c2ccccc2sn1CNc1ccccn1 [Example 4, 2-[2'-Pyridylaminomethyl]-1,2-benzisothiazol-3-one] | 100 | –
O=c1c2ccccc2sn1N1CCOCC1 [Example 5, 2-(morpholino)-1,2-benzisothiazol-3-one] | 100 | –
O=c1c2cc(Cl)ccc2sn1-c1ccccn1 [Example 6] | 100 | –
O=c1c2cc(Cl)ccc2sn1-c1ncccn1 [Example 7] | 100 | –
O=c1c2ccccc2sn1-c1nccs1 [Example 8, 2-(thiazol-2-yl)-1,2-benzisothiazol-3-one] | – | 100
O=c1c2ccccc2sn1CCc1ccccn1 [Example 9, 2-(β-2'-pyridylethyl)-1,2-benzisothiazol-3-one hydrochloride] | 100 | –
Cc1ccc2sn(CCc3ccccn3)c(=O)c2c1 [Example 10, 5-methyl-2-(β-2'-pyridylethyl)-1,2-benzisothiazol-3-one hydrochloride] | 100 | –
O=c1c2ccc(Cl)cc2sn1CCc1ccccn1 [Example 11, 6-chloro-2-(β-2'-pyridylethyl)-1,2-benzisothiazol-3-one hydrochloride] | 100 | –
O=c1c2cc(Cl)c(Cl)cc2sn1CCc1ccccn1 [Example 12] | 100 | –
O=c1c2ccccc2sn1CCN1CC2CCC(CC2)C1 [Example 13, 2-β-(3-azabicyclo[3.2.2]non-3-yl)ethyl-1,2-benzisothiazol-3-one hydrochloride] | 100 | –
O=c1c2cc(Cl)c(Cl)cc2sn1CCN1CC2CCC(CC2)C1 [Example 14, 5,6-dichloro-2-β-(3-azabicyclo[3.2.2]non-3-yl)ethyl-1,2-benzisothiazol-3-one] | 100 | –
COc1cc2sn(CCN3CC4CCC(CC4)C3)c(=O)c2cc1OC [Example 15, 5,6-dimethoxy-2-β-(3-azabicyclo[3.2.2]non-3-yl)ethyl 1,2-benzisothiazol-3-one] | 92 | –
O=c1c2cc(Cl)c(Cl)cc2sn1CCN1CCCC1 [Example 16, 5,6-dichloro-2-β-(1-pyrrolidinyl)ethyl-1,2-benzisothiazol-3-one] | 100 | –
COc1cc2sn(CCN3CCCC3)c(=O)c2cc1OC [Example 18] | 91 | –
O=c1c2ccccc2sn1CCN1CCCCCC1 [Example 19, 2-β-(homopiperidin-1-yl)ethyl-1,2-benzisothiazol-3-one hydrochloride] | 92 | –
O=c1c2ccccc2sn1CCN1CCc2ccccc2C1 [Example 20, 2-β-(N-tetrahydroisoquinolylethyl)-1,2-benzisothiazol-3-one hydrochloride] | 100 | –
O=c1c2ccccc2sn1CCn1sc2ccccc2c1=O [Example 21, 1,2-bis(1,2-benzisothiazol-3-on-2-yl)ethane] | 91 | –
O=c1c2ccccc2sn1CNc1ccncc1 [Example 23, 2-[4'-pyridylaminomethyl]-1,2-benzisothiazol-3-one] | 23 | –
CC1CCCCN1CCn1sc2ccccc2c1=O (stereo not shown) [Example 27] | 100 | –
